Data reported in publication PMC9005681, “Use of AD Informer Set compounds to explore validity of novel targets in Alzheimer's disease pathology” (Alzheimer's & Dementia : Translational Research & Clinical …, 2022).
Values joined by “and” are separate entries in the source; they are usually repeats but may differ in a detail not shown here. Equal entries are not always repeated.

Tests used:
[1] = molecular target: T1, cloned human or rodent CNS receptors, channels, and transporters (PDSP panel) (Cavia porcellus, UniProt Q60492); experiment: PDSP GPCR panel primary binding assays at 10 μM; conditions: Sigma 1, primary assay
T1 construct: expressed in transfected cells
In short: (§1)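 Primary screen: 10 μM, quadruplicate, displacement of radio-labeled standard ligand. Hit cut-off >50% mean displacement → secondary 11-point dose-response, triplicate. H3, PBR, GABAA excluded from follow-up.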

[2] = tested on: cloned human or rodent CNS receptors, channels, and transporters (PDSP panel); experiment: PDSP GPCR panel primary binding assays at 10 μM; conditions: primary assay; for Mean %: mean inhibition; for Inhibition 1: replicate 1; for Inhibition 2: replicate 2; for Inhibition 3: replicate 3; for Inhibition 4: replicate 4
In short: as §1

[3] = molecular target: T2, cloned human or rodent CNS receptors, channels, and transporters (PDSP panel) (Rattus norvegicus, UniProt Q5U3Y7); experiment: PDSP GPCR panel primary binding assays at 10 μM; conditions: Sigma 2, primary assay
T2 construct: expressed in transfected cells
T2 sequence (Q5U3Y7 1-176): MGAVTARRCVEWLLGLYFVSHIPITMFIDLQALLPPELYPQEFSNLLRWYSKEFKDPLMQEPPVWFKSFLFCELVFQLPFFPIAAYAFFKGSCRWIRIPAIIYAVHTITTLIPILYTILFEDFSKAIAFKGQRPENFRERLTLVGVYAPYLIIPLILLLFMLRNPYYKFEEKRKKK
In short: as §1

CAPN2 = tested on: CAPN2; set-up: method as in Probe Miner, PubMed 9637399, 31133534, 30052328; conditions: published affinity; ref Probe Miner, PubMed 9637399, 31133534, 30052328; cited from earlier work
[4] = mouse, IV, 2.0 mg/kg, published PK values; cited from earlier work
[5] = Plasma plus brain concentrations at 1 h after IV dose; assay type: in vivo; conditions: mouse, brain and plasma, CD1 mice, IV 10 mg/kg
Method: Compounds with acceptable PK were dosed IV at 10 mg/kg and plasma plus brain
concentrations measured at 1h in CD1 mice (3 mice per cohort, Table 2). […]

T1 sequence (Q60492 whole entry): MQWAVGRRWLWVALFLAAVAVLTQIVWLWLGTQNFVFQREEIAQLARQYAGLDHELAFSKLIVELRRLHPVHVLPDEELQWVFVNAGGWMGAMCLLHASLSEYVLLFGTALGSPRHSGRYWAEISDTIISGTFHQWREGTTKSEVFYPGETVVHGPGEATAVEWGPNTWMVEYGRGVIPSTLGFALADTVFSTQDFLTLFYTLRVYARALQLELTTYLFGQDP

SMILES: O=C(NC1CC1)C(=O)C(Cc1ccccc1)NC(=O)[C@H]1CCC(=O)N1Cc1ccccc1 (some centres unmarked) [UNC10302676A, ABT-957 (Alicapistat)]
- Inhibition 1 ([1]; replicate 1): 5.01%
- Inhibition 2 ([1]; replicate 2): -7.02%
- Inhibition 3 ([1]; replicate 3): -4.4%
- Inhibition 4 ([1]; replicate 4): -3.65%
- Mean % ([2]; Alpha1A): -18.33%
- Inhibition 1 ([2]; Alpha1A): -14.03%
- Inhibition 2 ([2]; Alpha1A): -31.43%
- Inhibition 3 ([2]; Alpha1A): -21.43%
- Inhibition 4 ([2]; Alpha1A): -6.43%
- Mean % ([2]; Alpha2A): 5.04%
- Inhibition 1 ([2]; Alpha2A): 2.51%
- Inhibition 2 ([2]; Alpha2A): 2.44%
- Inhibition 3 ([2]; Alpha2A): -2.65%
- Inhibition 4 ([2]; Alpha2A): 17.86%
- Mean % ([2]; Alpha2C): -12.84%
- Inhibition 1 ([2]; Alpha2C): -8.12%
- Inhibition 2 ([2]; Alpha2C): -10.33%
- Inhibition 3 ([2]; Alpha2C): -21.43%
- Inhibition 4 ([2]; Alpha2C): -11.46%
- Mean % ([2]; BZP Rat Brain Site): 3.75%
- Inhibition 1 ([2]; BZP Rat Brain Site): 19.6%
- Inhibition 2 ([2]; BZP Rat Brain Site): -1.35%
- Inhibition 3 ([2]; BZP Rat Brain Site): -4.1%
- Inhibition 4 ([2]; BZP Rat Brain Site): 0.83%
- Mean % ([2]; DOR): -6.76%
- Inhibition 1 ([2]; DOR): 2.73%
- Inhibition 2 ([2]; DOR): -0.34%
- Inhibition 3 ([2]; DOR): -9.56%
- Inhibition 4 ([2]; DOR): -19.86%
- Inhibition 1 ([2]; GABAA): 23.2% and -15.74%
- Inhibition 2 ([2]; GABAA): 18.02% and -7.64%
- Inhibition 3 ([2]; GABAA): -2.68% and 0%
- Inhibition 4 ([2]; GABAA): 4.71% and -21.69%
- Mean % ([2]; H3): -14.21%
- Inhibition 1 ([2]; H3): -25.14%
- Inhibition 2 ([2]; H3): -2.99%
- Inhibition 3 ([2]; H3): -42.04%
- Inhibition 4 ([2]; H3): 13.33%
- Mean % ([2]; H4): -11.52%
- Inhibition 1 ([2]; H4): -3.78%
- Inhibition 2 ([2]; H4): -13.62%
- Inhibition 3 ([2]; H4): -23.94%
- Inhibition 4 ([2]; H4): -4.74%
- Mean % ([2]; Sigma 1): -2.52%
- Mean % ([2]; Sigma 2): 7.31%
- Inhibition 1 ([3]; replicate 1): 16.59%
- Inhibition 2 ([3]; replicate 2): 3.8%
- Inhibition 3 ([3]; replicate 3): 13.22%
- Inhibition 4 ([3]; replicate 4): -4.38%
- Reported on-target biochemical potency, CAPN2 (CAPN2): 56 nM
- AUClast [4]: 35.6 µM·h
- CL [4]: 7.8 mL/min/kg
- Kp at 1 h [5]: 0.015
